One data set deals with T1, MCL-1 (Homo sapiens, UniProt Q07820).
T1 construct: 172-327 was expressed; His-SUMO (N, cleaved yes); made in house
Kind of data set: Isothermal calorimetry (ITC) of peptide binding to MCL-1. The settings on record: 50 mM Tris, 150 mM NaCl, pH 7.5, 150 μM peptide; for Kd: 25°C, one-binding site model. On the procedure:
Peptide variants were prepared as N-terminal acetamides and C-terminal amides (see ESI ^†). […] Lastly, structural effects of these variations were investigated using circular dichroism (CD) spectroscopy (Fig. S4, ESI ^†).
(b) ITC data (50 mM Tris, 150 mM NaCl, pH 7.5, 150 μM peptide). […]
ITC experiments were carried out using a Microcal ITC200i instrument (Malvern) at 25°C in […]
[…] The protein of interest was dialysed against the buffer prior to experiment, and lyophilized peptides were dissolved in the same buffer. Protein was present in the cell and titrated with peptide solutions loaded into the syringe using 20 x 2 uL injections with 120 s spacing between the injections. Heats of peptide dilution were subtracted from each measurement raw data. Data was analysed using Microcal Origin 8 and

A further data set deals with T2, hSUMO-1 18-97 (Homo sapiens, UniProt P63165).
T2 construct: 18-97; His-TEV (N, cleaved yes); made in house
Nature of the data set: Fluorescence anisotropy competition assay, FITC-peg-SIM tracer / SUMO. The data set is classed as binding. The conditions noted are these: for inhibitory potency in competition FA: competition FA vs SIM tracer/SUMO, relative to SIM2705–2717; for IC50: competition FA, 50 mM Tris, 150 mM NaCl, 25 nM tracer, 100 nM SUMO, read after 45 min, triplicate. On the procedure: hSUMO-1 18-97 was expressed and purified as previously described from a pet19b His-TEV-SUMO-1 (18-97) construct with cleavage of the tag using TEV protease.4 […]
(§1) Fluorescence anisotropy assays were performed in 384-well plates (Greiner Bio-one). Each experiment was run in triplicate and the fluorescence anisotropy measured using a Perkin Elmer EnVisionTM 2103 MultiLabel plate reader, with excitation at 480 nm (30 nm bandwidth), polarised dichroic mirror at 505 nm and emission at 535 nm (40 nm bandwidth, S and P polarised). All assays were performed in 20 mM Tris, 100 mM NaCl, 0.1 mM DTT, pH 7.5 unless otherwise stated and data analysed following previously published methods.
(§2) Fluorescence anisotropy data was processed as described previously.[2] Briefly. the data from both the P (perpendicular intensity) and S (parallel intensity) channels, resulting from this measurement and corrected by subtracting the corresponding control wells, were used to calculate the intensity and anisotropy for each well following Equations 1 and 2: […]
(§3) For direct titration the average anisotropy (across three experimental replicates) and the standard deviation of these values were then calculated and fit to a logistic model using OriginPro 9.0 to determine the maximum and minimum anisotropies then the fraction bound calculated (Equation 3) and used to determine Kd (equation 4)
(§4) Lb= (r‒rmin)/λ(rmax‒r)+r‒rmin Equation 3
(§5) y= {(k+ x+[ FL])‒√{k+x+[FL] 2‒4x[FL]}}/2 Equation 4 r = anisotropy, I = total intensity, P = perpendicular intensity, S = parallel intensity, G = instrument factor which was set to 1 for all experiments, Lb = fraction ligand bound, λ = […]
(§6) For competition experiments, the anisotropies were determined as for the direct titration and then plotted against inhibitor concentration and fit (equation 5) to determine the IC50 and error […]
(§7) y = rmax + (rmin-rmax)/(1+(x/xo)p) Equation 5
(§8) Where xo represents the IC50 […]
(§9) Competition binding assays:
(§10) FA competition assays were performed in 384 well plates with the concentration of variant […]
(§11) with fixed protein and tracer concentrations. FITC-labelled peptide was added to each well to […]
(§12) For control wells, the tracer peptide was replaced with an identical volume of assay buffer.
(§13) The total volume in each well was 60 μL. […]
On the technique in general: In fluorescence polarisation assays a small probe gives low polarisation when free and higher when bound to something large.

In another data set the target is T3, hMCL-1 172-327 (Homo sapiens, UniProt Q07820).
T3 construct: 172-327 was expressed; His-SUMO (N, cleaved yes); made in house
Nature of the data set: Fluorescence anisotropy competition assay, FITC-Ahx-BIM75–85 tracer / MCL-1. The data set is classed as binding. The settings on record: for inhibitory activity in competition FA: competition FA vs FITC-Ahx-BIM75–85/MCL-1, relative to NOXA75–93. The method, then:
as §1, §2, §3, §4, §5, §6, §7, §8, §9, §10, §11, §12, §13

The next data set relates to α-chymotrypsin. Kind of data set: Proteolysis by α-chymotrypsin. It is filed as in vitro ADME, bovine. The settings on record: 45 μM peptide, 0.25 μg/ml α-chymotrypsin, 25 °C, 50 mM Tris-HCl pH 8.0, 150 mM NaCl, 10 mM CaCl2; LC-MS EIC of full-length peptide; triplicate.
Description: An advantage of PreSaVS lies in the ability to identify tolerated variants – in terms of target binding affinity – with more desirable physicochemical properties (Table S3 for calculated physicochemical properties, ESI ^†). […] This may arise from subtle changes in protease recognition specificity, although given proteases recognise substrates in an extended, β-like conformation as is the case for the SIM2705–2717/SUMO interaction, secondary structure propensity may also play a role.
Figure S7. Proteolysis data for (a) NOXA75-93 (45 μM peptide in the presence of 0.25 μg/ml α-chymotrypsin at 25 °C) and (b) SIM2705-2717 (40 μM peptide in the presence of 0.75 μg/mL Proteinase K at 25 °C). Data points show the mean ± standard deviation over triplicate measurements. Insets show t1/2 values.
as §8
diluted over 16-24 points using 2-fold dilutions. […]
of assay buffer. Plates were read after 45 minutes. […]
The total volume in each well was 60 μL. Plates were read after 45 minutes of incubation at […]
uL injections with 120 s spacing between the injections. […] Data was analysed using Microcal Origin 8 and fitted to a one-binding site model […]
Peptide solubility was assessed using a qualitative test.
= 5690 M-1cm-1), concentrations were determined based on the absorbance at 280 nm. For NOXA variants, concentrations were determined based on absorbance at 205 nm (ε 205 = […]

Several values for one entry are separate records, joined by “and”; a condition that tells them apart may be missing. Identical values can stand only once. Some results are limits rather than exact numbers.

T2 sequence (P63165 18-97): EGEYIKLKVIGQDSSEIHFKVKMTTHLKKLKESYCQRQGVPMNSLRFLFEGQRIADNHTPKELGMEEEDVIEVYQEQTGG
T3 sequence (Q07820 172-327): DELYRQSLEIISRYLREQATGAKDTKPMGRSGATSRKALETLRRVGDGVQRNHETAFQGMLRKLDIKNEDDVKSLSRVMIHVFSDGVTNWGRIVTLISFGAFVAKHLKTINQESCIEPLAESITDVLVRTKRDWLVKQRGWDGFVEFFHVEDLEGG
T1 sequence (Q07820 172-327): as above

On MCL-1, `CC[C@H](C)[C@H](NC(=O)[C@H](CCCNC(=N)N)NC(=O)[C@H](CCCNC(=N)N)NC(=O)[C@H](CC(C)C)NC(=O)[C@H](CCC(N)=O)NC(=O)[C@H](C)NC(=O)[C@H](C)NC(C)=O)C(=O)NCC(=O)N[C@@H](CC(=O)O)C(=O)N[C@@H](CCCCN)C(=O)N[C@H](C(=O)N[C@@H](CC(N)=O)C(=O)N[C@@H](CC(C)C)C(=O)N[C@@H](CCCNC(=N)N)C(=O)N[C@@H](CCC(N)=O)C(=O)N[C@@H](CCCCN)C(=O)N[C@@H](CC(C)C)C(=O)N[C@@H](CC(C)C)C(=O)N[C@@H](CC(N)=O)C(N)=O)C(C)C` [NOXA75–93] gave a ΔG of -2.08 kcal/mol and a ΔH of -4.59 ± 0.359 kcal/mol.
In general, IC50 refers to the concentration at which inhibition is half-maximal. A lower IC50 goes with higher potency. `CC[C@H](C)[C@H](NC(=O)[C@H](CCC(=O)O)NC(=O)[C@H](CC(N)=O)NC(=O)[C@H](CC(=O)O)NC(C)=O)C(=O)N[C@@H](CCC(=O)O)C(=O)N[C@H](C(=O)N[C@@H](CCC(=O)O)C(=O)N[C@H](C(=O)N[C@H](C(=O)N[C@@H](Cc1c[nH]c2ccccc12)C(=O)N[C@@H](CCC(=O)O)C(=O)N[C@@H](CCCCN)C(=O)N[C@@H](CCCCN)C(N)=O)C(C)C)[C@@H](C)CC)C(C)C` [SIM2705–2717I2711E]: on hSUMO-1 18-97, the “inhibitory potency in competition FA” value is reported as “lost inhibitory potency” and the concentration for half-maximal inhibition (IC50) was more than 200000 nM.
Regarding `CC[C@H](C)[C@H](NC(=O)[C@H](CCC(=O)O)NC(=O)[C@H](CC(N)=O)NC(=O)[C@H](CC(=O)O)NC(C)=O)C(=O)N[C@@H](CCC(=O)O)C(=O)N[C@H](C(=O)N[C@H](C(=O)N[C@H](C(=O)N[C@H](C(=O)N[C@@H](Cc1c[nH]c2ccccc12)C(=O)N[C@@H](CCC(=O)O)C(=O)N[C@@H](CCCCN)C(=O)N[C@@H](CCCCN)C(N)=O)C(C)C)[C@@H](C)CC)[C@@H](C)CC)[C@@H](C)CC` [SIM2705–2717V2710I], the IC50 at hSUMO-1 18-97 was 16200 nM and 16100 nM.
In the case of `CC[C@H](C)[C@H](NC(=O)[C@H](CCC(=O)O)NC(=O)[C@H](CC(N)=O)NC(=O)[C@H](CC(=O)O)NC(C)=O)C(=O)N[C@@H](CCC(=O)O)C(=O)N[C@H](C(=O)N[C@H](C(=O)N[C@H](C(=O)N[C@@H](CCC(=O)O)C(=O)N[C@@H](Cc1c[nH]c2ccccc12)C(=O)N[C@@H](CCC(=O)O)C(=O)N[C@@H](CCCCN)C(=O)N[C@@H](CCCCN)C(N)=O)[C@@H](C)CC)[C@@H](C)CC)C(C)C` [SIM2705–2717V2713E], on hSUMO-1 18-97, the “inhibitory potency in competition FA” value is “lost inhibitory potency” and the IC50 was more than 200000 nM.
As usually defined, the Kd is the equilibrium constant for the complex coming apart. The low end stands for higher affinity, the high end for lower affinity. Regarding “Ac-AAQFRRIGDKVNLRQKLLN-NH2 [NOXA75–93L78F]”, the IC50 on hMCL-1 172-327 was found to be 2700 ± 100 nM. The same molecule returned a Kd at MCL-1 of 1700 ± 100 nM. For the same molecule, in the data set with α-chymotrypsin, the “increased rate of cleavage by α-chymotrypsin relative to NOXA75–93” value was “≈ 10 fold”.
Turning to “Ac-AAQLRRIGDKFNLRQKLLN-NH2 [NOXA75–93V85F]”, on hMCL-1 172-327, the IC50 was more than 20000 nM and the “inhibitory activity in competition FA” value is “weaker inhibitory activity”. Moreover, at MCL-1, the ΔG is -2 kcal/mol, the ΔH was -3.66 ± 0.813 kcal/mol, the “−TΔS” value amounted to 1.65 kcal/mol and the Kd worked out at 800 ± 100 nM.
Take “Ac-AAQWRRIGDKVNLRQKLLN-NH2 [NOXA75–93L78W]”: at hMCL-1 172-327, the IC50 came out at 2200 ± 100 nM and the “inhibitory activity in competition FA” value is recorded as “tolerated”. Besides, at MCL-1, the ΔG was -1.83 kcal/mol, the ΔH was -3.13 ± 0.932 kcal/mol, the “−TΔS” value is 1.31 kcal/mol and the Kd stood at 2400 ± 800 nM.
Consider “Ac-AAQYRRIGDKVNLRQKLLN-NH2 [NOXA75–93L78Y]”, for which, at hMCL-1 172-327, the IC50 is more than 100000 nM and the “inhibitory activity in competition FA” value is on record as “poor inhibitor”. Besides, the “increased rate of cleavage by α-chymotrypsin relative to NOXA75–93” value in the data set on α-chymotrypsin is given as “≈ 10 fold”.

The values are drawn from publication PMC8495968, “Towards optimizing peptide-based inhibitors of protein–protein interactions: predictive saturation variation scanning (PreSaVS)” (RSC Chemical Biology, 2021).
